Where a name gives a salt, the structure may show the parent alone.
Tested on: TA98
Assay: Ames assay, dark mutagenicity, strain TA98
Method: In this example the compounds of the present invention are tested for their dark mutagenicity using an Ames assay. The procedures used for the Salmonella mutagenicity test as described in detail by Maron and Ames were followed exactly. Maron, D. M. and B. N. Ames, Mutation Research 113:173 (1983). A brief description for each procedure is given here. The tester strains TA97a, TA98, TA100, TA102, TA1537 and TA1538 were obtained from Dr. Ames. TA97a, TA98, TA1537 and TA1538 are frameshift tester strains. TA100 and TA102 are base-substitution tester strains. Upon receipt each strain was cultured under a variety of conditions to confirm the genotypes specific to the strains.
The first tests done with the strains were to determine the range of spontaneous reversion for each of the strains. With each mutagenicity experiment the spontaneous reversion of the tester strains to histidine independence was measured and expressed as the number of spontaneous revertants per plate. This served as the background controls.
For all experiments, the pre-incubation procedure was used. In this procedure one vial of each tester strain was thawed and 20 μL of this culture was added to 6 mL of Oxoid Nutrient Broth #2. This solution was allowed to shake for 10 hours at 37° C. In the pre-incubation procedure, 0.1 mL of this overnight culture was added to each of the required number of sterile test tubes. To half of the tubes 0.5 mL of a 10% S-9 solution containing Aroclor 1254 induced rat liver extract (Molecular Toxicology Inc., Annapolis, MD), and MgCl2, KCl, glucose-6-phosphate, NADP, and sodium phosphate buffer (Sigma, St. Louis. Mo.) were added. To the other half of the tubes 0.5 mL of 0.2M sodium phospate buffer, pH 7.4, was used in place of the S-9 mixture (the -S9 samples) Finally 0.1 mL of the test solution containing either 0.0.1, 0.5, 1, 5, 10, 50, 100, 250, or 500 μg/mL of the test compound was added. The 0.7 mL mixture pre-incubated while shaking for 20 minutes at 37° C. After shaking, 2 mL of molten top agar supplemented with histidine and biotin were added to the 0.7 mL mixture and immediately poured onto a minimal glucose agar plate (volume of base agar was 20 ml.). The top agar was allowed 30 minutes to solidify and then the plates were inverted and incubated for 44 hours at 37° C. After incubation the number of revertant colonies on each plate were counted. […] (“n” represents the number of replicates performed for each data point.)
Maron and Ames (1983) describe the conflicting views with regard to the statistical treatment of data generated from the test.

Cc1oc2c(C)c3oc(=O)cc(C)c3cc2c1CNCCCCN [Compound 6, 4′-(6-Aminohexyl-2-aza)-4,5′,8-trimethylpsoralen Dihydrochloride]
revertant colonies per plate (TA98 +S9, 10 μg/plate): −5
revertant colonies per plate (TA98 +S9, 250 μg/plate): 40
revertant colonies per plate (TA98 +S9, 500 μg/plate): 52
revertant colonies per plate (TA98 −S9, 10 μg/plate): 12
revertant colonies per plate (TA98 −S9, 50 μg/plate): 12
revertant colonies per plate (TA98 −S9, 100 μg/plate): 22
revertant colonies per plate (TA98 −S9, 250 μg/plate): 12
revertant colonies per plate (TA98 −S9, 500 μg/plate): 9

— patent US6420570B1, “Psoralen compounds” (priority 1993, dated 2002)
